# Experiment: Evaluation of hydrophobicity degree of dye by TLC (Rf value)
# Format: physicochemical
# Settings: of the dye used; TLC glass plate RP-18, methanol containing 1 wt % lithium chloride
# Experimental: (Evaluation Method for Hydrophobicity Degree of Hydrophobic Dye Having Cyanine Structure) In order to compare the hydrophobicity degrees of hydrophobic dyes each having a cyanine structure, an evaluation was performed through use of a thin-layer liquid chromatography (hereinafter may be abbreviated as TLC) method. A TLC glass plate RP-18 (manufactured by Merck) was used as a plate for development, and a methanol solution containing 1 wt % of lithium chloride was used as a developing solvent. According to an ordinary method, a dye solution was spotted on the origin, and a relative migration distance (hereinafter may be abbreviated as Rf value) was calculated based on the following equation. Rf value=Distance from origin to center of spot of component/Distance from origin to solvent front
row,Rf value,Compound
1,0.45,"CN1/C(=C/C=C/C=C/C=C/C2=[N+](C)c3ccccc3C2(C)C)C(C)(C)c2ccccc21 [Chemical formula (A1), 1,1′,3,3,3′,3′-hexamethylindotricarbocyanine iodide]"
2,0.5,"CCN1/C(=C/C=C/C=C/C=C/C2=[N+](CC)c3ccccc3C2(C)C)C(C)(C)c2ccccc21 [Chemical formula (A2), 3H-indolium, 1-ethyl-2-[7-(1-ethyl-1,3-dihydro-3,3-dimethyl-2H-indol-2-ylidene)-1,3,5-heptatrien-1-yl]-3,3-dimethyl-, iodide]"
3,0.45,"CN1\C(=C/C=C/C=C/C=C/C2=[N+](C)c3ccccc3C2(C)C)C(C)(C)c2ccccc21 [Chemical formula (C1), 1,1′,3,3,3′,3′-hexamethylindotricarbocyanine perchlorate]"
4,0.31,"CN1/C(=C/C=C/C=C/C=C/C2=[N+](C)c3ccc4ccccc4c3C2(C)C)C(C)(C)c2c1ccc1ccccc21 [Chemical formula (C2), 1,1′,3,3,3′,3′-hexamethyl-4,4′,5,5′-dibenzo-2,2′-indotricarbocyanine perchlorate]"

row,Compound,Rf value
1,"CN1/C(=C/C=C2\CCCC(/C=C/C3=[N+](C)c4ccc5ccccc5c4C3(C)C)=C2Cl)C(C)(C)c2c1ccc1ccccc21 [Chemical formula (A3), 2-[2-[2-chloro-3-[2-(1,3-dihydro-1,1,3-trimethyl-2H-benzo[e]-indol-2-ylidene)-ethylidene]-1-cyclohexen-1-yl]-ethenyl]-1,1,3-trimethyl-1H-benzo[e]indolium perchlorate]",0.09

# Source: patent publication US9138492B2, “Particle containing hydrophobic dye having cyanine structure, and contrast agent containing the particle” (CANON KABUSHIKI KAISHA, priority 2012, dated 2015)
